Data taken from US9012493B2, “1-heterodiene derivative and pest control agent” (Nippon Soda Co., Ltd., priority 2009, dated 2015).

Legend:
Format in all cases: in vivo
[1] = test system: Rice Armyworm (Mythimna Separata); experiment: Efficacy test against rice armyworm, corn leaf dip; details: 125 ppm, emulsifiable concentrate diluted with water, corn leaves immersed, second instar larvae, after 5 days, 25° C.
Protocol: (§1) Test Examples of the pest control agent thus obtained according to the present invention are shown below. In respective Test Examples, the insecticidal rate (%) was determined by the following calculation equation. Insecticidal rate (%)=(number of dead pests/number of released pests)×100
The emulsifiable concentrate obtained according to Formulation of Formulation Example 2 was diluted with water so as to control the concentration of the compound to 125 ppm. Leaves of corn were immersed in this diluted solution for 30 seconds and then air-dried. The leaves were put in a petri dish on which a filter paper is laid, and then five second instar larvae of rice armyworm were inoculated. After covering the petri dish with a glass lid, the petri dish was placed in a temperature-controlled room at a temperature of 25° C. and a humidity of 65%. After 5 days, life and death were examined and the insecticidal rate was determined. The test was repeated twice.

[2] = test system: Sweetpotato Whitefly (Bemisia Tabaci); experiment: Efficacy test against sweetpotato whitefly, sprayed tomato leaf; details: 125 ppm, emulsifiable concentrate diluted with water, adults (type B), after 2 days, 25° C.
Protocol: as §1
The emulsifiable concentrate obtained according to Formulation of Formulation Example 2 was diluted with water so as to control the concentration of the compound to 125 ppm. The diluted solution was sprayed over a tomato leaf obtained by cutting and then air-dried. Using absorbent cotton, the leaf was fixed to a flask so that a front surface of the leaf faces upward. Seven pairs of adults of sweetpotato whitefly (type B) were inoculated in this container, and the container was placed in a temperature-controlled room at a temperature of 25° C. and a humidity of 65%. After 2 days, life and death were examined and the insecticidal rate was determined. The test was repeated twice.

[3] = test system: Cotton Aphid (Aphis Gossypii); experiment: Efficacy test against cotton aphid, spray on cucumber plant; details: 125 ppm, emulsifiable concentrate diluted with water, sprayed over cucumber plant with nymphs, after 5 days, 25° C.
Protocol: as §1
The emulsifiable concentrate obtained according to Formulation of Formulation Example 2 was diluted with water so as to control the concentration of the compound to 125 ppm. Adults of cotton aphids were inoculated to a cucumber plant (approximately 10 days after sprouting) sown in a 3 sun/size pot (9 cm). After 1 day, adult aphids were removed and the diluted solution was sprayed over the cucumber plant on which delivered nymphs are parasitic. The pot was placed in a temperature-controlled room at a temperature of 25° C. and a humidity of 65%. After 5 days, life and death were examined and the insecticidal rate was determined. The test was repeated twice.

With `C=C1SC(=Nc2ccc(C)cc2)C(=CSc2ccc3ccccc3c2)CC1(C)C` (mixture of isomers) [Compound 2-88] the insecticidal rate [1] was 100% and the insecticidal rate [2] was 100%.

Work on `C=C1SC(=Nc2ccc(C)cc2)C(=CSc2ccc([N+](=O)[O-])cc2)CC1(C)C` (mixture of isomers) [Compound 6-4] yielded an insecticidal rate [1] of 100%.

Compound `C=C1SC(=Nc2ccc(C)cc2)C(=CSC2CCCCC2)CC1(C)C` (mixture of isomers) [Compound 6-5] has an insecticidal rate [1] of 100% and an insecticidal rate [2] of 100%.

`C=C1SC(=Nc2ccc(C)cc2)C(=CSC2CCc3ccccc32)CC1(C)C` (racemic) [Compound 2-115] was tested, and the insecticidal rate [1] was 100% and the insecticidal rate [2] was 100%.

`C=C1SC(=Nc2ccc(OC)cc2)C(=CSc2ccccc2)CC1(C)CCC=C(C)C` (racemic) [Compound 2-130] showed an insecticidal rate [1] of 100% and an insecticidal rate [2] of 100%.

`CC(C)=C1CC(=CSc2ccccc2)C(=Nc2ccc(Cl)cc2)S1` [Compound 1-2] showed an insecticidal rate [1] of 100% and an insecticidal rate [2] of 100%.

With `CC(C)=C1CC(=CSc2ccccc2)C(=[NH+]c2ccc(Cl)cc2)S1.F[B-](F)(F)F` [Compound 1-3] the insecticidal rate [1] was 100% and the insecticidal rate [2] was 100%.

In the case of `C=C1CCC(=CSc2ccccc2)C(=Nc2ccc(Cl)cc2)S1` [Compound 2-1], the insecticidal rate [1] was 100% and the insecticidal rate [2] was 100%.

`C=C1CCC(=CSc2ccccc2)C(=Nc2ccc(C(F)(F)F)cc2)S1` [Compound 2-5] was tested, and the insecticidal rate [1] was 100% and the insecticidal rate [2] was 100%.

`C=C1CCC(=CSc2ccccn2)C(=Nc2ccc(C)cc2)S1` [Compound 2-7] was tested, and the insecticidal rate [3] was 100%.

In the case of `C=C1CCC(=CSc2ccccc2)C(=Nc2ccc(OC)cc2)S1` [Compound 2-8], the insecticidal rate [1] was 100%, the insecticidal rate [3] was 100% and the insecticidal rate [2] was 100%.

Work on `C=C1CCC(=CSc2ccc(F)cc2)C(=Nc2ccc(OC)cc2)S1` [Compound 2-9] yielded an insecticidal rate [1] of 100%, an insecticidal rate [3] of 100% and an insecticidal rate [2] of 100%.

`C=C1SC(=Nc2ccc(OC)cc2)C(=CSc2ccccc2)CC1(C)C` [Compound 2-16] showed an insecticidal rate [1] of 100%, an insecticidal rate [3] of 100% and an insecticidal rate [2] of 100%.

`C=C1SC(=Nc2ccc(C)cc2)C(=CSc2ccc(OC)cc2)CC1(C)C` [Compound 2-18] showed an insecticidal rate [1] of 100%, an insecticidal rate [3] of 100% and an insecticidal rate [2] of 100%.

For `C=C1SC(=Nc2ccc(C)cc2)C(=CSc2ccccc2OC)CC1(C)C` [Compound 2-19], the insecticidal rate [1] was 100%, the insecticidal rate [3] was 100% and the insecticidal rate [2] was 100%.

Compound `C=C1SC(=Nc2ccc(C)cc2)C(=CSc2ccc(NC(C)=O)cc2)CC1(C)C` [Compound 2-21] has an insecticidal rate [1] of 100%.

Compound `COc1ccc(N=C2SC(=C(C)C)CCC2=CSc2ccc(F)cc2)cc1` [Compound 2-22] has an insecticidal rate [1] of 100%, an insecticidal rate [3] of 100% and an insecticidal rate [2] of 100%.

For `COc1ccc(N=C2SC(=C(C)C)CCC2=CSc2ccccc2)cc1` [Compound 2-23], the insecticidal rate [3] was 100%.

`C=C1SC(=Nc2ccc(C)cc2)C(=CSc2ccc(F)cc2)CC12CCCCC2` [Compound 2-24] was tested, and the insecticidal rate [1] was 100% and the insecticidal rate [2] was 100%.

With `C=C1SC(=Nc2cccc(OC)c2)C(=CSc2ccccc2)CC1(C)C` [Compound 2-25] the insecticidal rate [1] was 100%, the insecticidal rate [3] was 100% and the insecticidal rate [2] was 100%.

`C=C1SC(=Nc2ccc(C)cc2Cl)C(=CSc2ccccc2)CC1(C)C` [Compound 2-26] showed an insecticidal rate [1] of 100%, an insecticidal rate [3] of 100% and an insecticidal rate [2] of 100%.

`C=C1SC(=Nc2cccc(Cl)c2)C(=CSc2ccccc2)CC1(C)C` [Compound 2-29] showed an insecticidal rate [1] of 100%, an insecticidal rate [3] of 100% and an insecticidal rate [2] of 100%.

`C=C1SC(=Nc2ccc(OC)cc2OC)C(=CSc2ccccc2)CC1(C)C` [Compound 2-30] gave an insecticidal rate [1] of 100% and an insecticidal rate [3] of 100%.

`C=C1SC(=Nc2c(F)cccc2F)C(=CSc2ccccc2)CC1(C)C` [Compound 2-31] showed an insecticidal rate [1] of 100%, an insecticidal rate [3] of 100% and an insecticidal rate [2] of 100%.

Compound `C=C1SC(=Nc2ccc(OC)cc2F)C(=CSc2ccccc2)CC1(C)C` [Compound 2-33] has an insecticidal rate [1] of 100%, an insecticidal rate [3] of 100% and an insecticidal rate [2] of 100%.

Work on `C=C1SC(=Nc2cccc(Cl)c2Cl)C(=CSc2ccccc2)CC1(C)C` [Compound 2-37] yielded an insecticidal rate [1] of 100%, an insecticidal rate [3] of 100% and an insecticidal rate [2] of 100%.

Work on `C=C1SC(=Nc2ccc3c(c2)OCO3)C(=CSc2ccccc2)CC1(C)C` [Compound 2-39] yielded an insecticidal rate [1] of 100%, an insecticidal rate [3] of 100% and an insecticidal rate [2] of 100%.

In the case of `C=C1SC(=Nc2ccc(OC)cc2C)C(=CSc2ccc(OC)cc2)CC1(C)C` [Compound 2-42], the insecticidal rate [1] was 100%, the insecticidal rate [3] was 100% and the insecticidal rate [2] was 100%.

With `COc1ccc(N=C2SC(=C(C)C)CCC2=CSc2ncccn2)cc1` [Compound 2-43] the insecticidal rate [1] was 100%.

With `C=C1SC(=Nc2cc(Cl)ccc2Cl)C(=CSc2ccccc2)CC1(C)C` [Compound 2-44] the insecticidal rate [1] was 100% and the insecticidal rate [2] was 100%.

For `C=C1SC(=Nc2ccc(OC)cc2)C(=CSc2ncccn2)CC1(C)C` [Compound 2-47], the insecticidal rate [1] was 100%, the insecticidal rate [3] was 100% and the insecticidal rate [2] was 100%.

In the case of `C=C1CCC(=CSc2ccccc2)C(=Nc2ccsc2)S1` [Compound 2-52], the insecticidal rate [1] was 100%, the insecticidal rate [3] was 100% and the insecticidal rate [2] was 100%.

For `C=C1SC(=Nc2ccccc2)C(=CSc2ccccc2)CC1(C)C` [Compound 2-53], the insecticidal rate [1] was 100%, the insecticidal rate [3] was 100% and the insecticidal rate [2] was 100%.

With `C=C1SC(=Nc2ccccc2)C(=CSc2ccc(F)cc2)CC1(C)C` [Compound 2-54] the insecticidal rate [1] was 100%, the insecticidal rate [3] was 100% and the insecticidal rate [2] was 100%.

`C=C1SC(=Nc2ccc(OC)cc2)C(=COc2ccccc2)CC1(C)C` [Compound 2-55] showed an insecticidal rate [1] of 100%, an insecticidal rate [3] of 100% and an insecticidal rate [2] of 100%.

For `C=C1SC(=Nc2ccc(C)cc2)C(=CSc2ccc(F)cc2)CC12CCOCC2` [Compound 2-57], the insecticidal rate [1] was 100%, the insecticidal rate [3] was 100% and the insecticidal rate [2] was 100%.

`C=C1SC(=Nc2ccc(OC)cc2)C(=CSC2CCCC2)CC1(C)C` [Compound 2-58] gave an insecticidal rate [1] of 100%, an insecticidal rate [3] of 100% and an insecticidal rate [2] of 100%.

Compound `C=C1SC(=Nc2c(C)cccc2C)C(=CSc2ccccc2)CC1(C)C` [Compound 2-62] has an insecticidal rate [1] of 100%, an insecticidal rate [3] of 100% and an insecticidal rate [2] of 100%.

With `C=C1SC(=Nc2ccc(C)cc2)C(=CSC(C)(C)C)CC1(C)C` [Compound 2-74] the insecticidal rate [1] was 100% and the insecticidal rate [2] was 100%.

Compound `C=C1SC(=Nc2ccc(OC)cc2)C(=CSc2ccc(C=O)cc2)CC1(C)C` [Compound 2-82] has an insecticidal rate [1] of 100%.

Work on `C=C1SC(=Nc2ccc(OC)cc2)C(=CSc2ccc(C(F)(F)F)cn2)CC1(C)C` [Compound 2-95] yielded an insecticidal rate [1] of 100% and an insecticidal rate [2] of 100%.

`C=C1SC(=Nc2ccc(C)cc2)C(=CSc2ccccc2CO)CC1(C)C` [Compound 2-96] gave an insecticidal rate [1] of 100%.

`C=C1SC(=Nc2ccc(OC)cc2)C(=CSc2cccc(Oc3ccccc3)c2)CC1(C)C` [Compound 2-109] showed an insecticidal rate [2] of 100%.

In the case of `C=C1SC(=Nc2ccc(C)cc2)C(=CSc2sccc2OC)CC1(C)C` [Compound 2-116], the insecticidal rate [1] was 100% and the insecticidal rate [2] was 100%.

With `C=C1SC(=Nc2ccc(C)cc2)C(=CSc2cc(C)oc2C)CC1(C)C` [Compound 2-123] the insecticidal rate [1] was 100% and the insecticidal rate [2] was 100%.

`C=C1SC(=Nc2ccc(C)cc2)C(=CSc2cc(C(F)(F)F)ccn2)CC1(C)C` [Compound 2-126] showed an insecticidal rate [1] of 100% and an insecticidal rate [3] of 100%.

Compound `C=C1SC(=Nc2ccccc2)C(=CSc2nc(C)cnc2C)CC1(C)C` [Compound 2-131] has an insecticidal rate [1] of 100% and an insecticidal rate [2] of 100%.

Work on `C=C1SC(=Nc2ccc(C)cc2)C(=CSc2nccc(OC)n2)CC1(C)C` [Compound 2-133] yielded an insecticidal rate [1] of 100% and an insecticidal rate [2] of 100%.

For `C=C1CCC(=CSc2ccccn2)C(=Nc2ccc(C)cc2)S1` [Compound 4-1], the insecticidal rate [1] was 100%.

`C=C1SC(=Nc2ccc(OC)cc2)C(=CSc2ccccn2)CC1(C)C` [Compound 4-2] showed an insecticidal rate [1] of 100%.

`C=C1SC(=Nc2ccc(C)cc2)C(=CSc2nccs2)CC1(C)C` [Compound 4-3] gave an insecticidal rate [2] of 100%.

In the case of `C=C1SC(=Nc2ccc(OC)cc2)C(=CSc2cccs2)CC1(C)C` [Compound 4-4], the insecticidal rate [1] was 100% and the insecticidal rate [2] was 100%.
